Results: patent US8236860B2, “Inhibition of the survival of pancreatic cancer by cyclohexenone compounds from Antrodia camphorata” (Golden Biotechnology Corporation, priority 2009, dated 2012)

System: pancreatic cancer cell line BxPC-3
Assay: In vitro survival assay (MTT) for anti-pancreatic cancer effects
Assay type: cell-based
Conditions: Homo sapiens, BxPC-3 cells, 48 hours treatment, 0.03-30 μg/ml, read-out: IC50 (half inhibition concentration), survival of pancreatic cancer cells
Description: The compound 4--2,3-dimethoxy-6-methyl-5-(3,7,11-trimethyl-dodeca-2,6,10-trienyl)-cyclohex-2-enone of the formula (2) is explained below as an example for the present invention. The anti-cancer effects of 4--2,3-dimethoxy-6-methyl-5-(3,7,11-trimethyl-dodeca-2,6,10-trienyl)-cyclohex-2-enone was assessed using 3-(4,5-dimethylthiazol-2-yl)-2,5-diphenyltetrazolium bromide MTT) assay according to the anti-cancer drug screening model of National Cancer Institute (NCI) to analyze survival rates on pancreatic cancer cell line BxPC-3. […] Therefore, cyclohexenone compounds from Antrodia camphorata can be used for inhibiting the survival of pancreatic cancer cells and further be applied for the treatment of pancreatic cancer. The details of the examples are described as follows:
Inhibiting effects of pancreatic cancer cells by cyclohexenone compounds of Antrodia camphorata from example 1 were assessed according to the anticancer-drug screening model of National Cancer Institute (NCI). […] Survival of cell was analyzed using MTT assay. […]
The BxPC-3 cells were cultivated in RPMI 1640 medium supplemented with 10% fetal bovine serum, 100 IU/ml of Penicillin and […] of Streptomycin at 37° C., 5% CO2 for 24 hours. […] The absorbances were measured at 570 nm with an ELISA Reader to determine the survival rates.

COC1=C(OC)C(O)C(C/C=C(\C)CC/C=C(\C)CCC=C(C)C)C(C)C1=O (stereo not shown) [formula 2, 4--2,3-dimethoxy-6-methyl-5-(3,7,11-trimethyl-dodeca-2,6,10-trienyl)-cyclohex-2-enone]
IC50: 1.44 µg/mL
